Patent US8865756B2, “Inhibitors of HCV NS5A” (Presidio Pharmaceuticals, Inc., priority 2008, dated 2014)

Test system: HCV 1b_Huh-Luc/Neo-ET cell line persistently expressing a bicistronic genotype 1b replicon in Huh 7 cells
Assay: HCV replicon assay (luciferase readout)
Format: cell-based
Details: Hepatitis C virus, Huh-7, 72 h, read-out: Inhibition of HCV genotype 1b
In short: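 EC50, determined repeatedly, comes from a four-parameter logistic fit of luciferase signal as percent of untreated control. Readout follows 72 h compound exposure, in triplicate, of the HCV 1b_Huh-Luc/Neo-ET replicon line.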

SMILES | EC50 [nM]
O=C(N[C@@H](C(=O)N1CCC[C@H]1c1ncc(C#Cc2ccc(C#Cc3cnc([C@@H]4CCCN4C(=O)[C@H](NC(=O)N4CCOCC4)c4ccccc4)[nH]3)cc2)[nH]1)c1ccccc1)N1CCOCC1 [Compound 309] | < 1
CN1CCN(C(=O)N[C@@H](C(=O)N2CCC[C@H]2c2ncc(C#Cc3ccc(C#Cc4cnc([C@@H]5CCCN5C(=O)[C@H](NC(=O)N5CCN(C)CC5)c5ccccc5)[nH]4)cc3)[nH]2)c2ccccc2)CC1 [Compound 310] | 1 to 9.9
COC(=O)N[C@@H](C(=O)N1CCC[C@H]1c1ncc(C#Cc2ccc(C#Cc3cnc([C@@H]4CCCN4C(=O)[C@@H](c4ccccc4)N4CCCC4)[nH]3)cc2)[nH]1)c1ccccc1 [Compound 311] | < 1
COC(=O)N[C@@H](C(=O)N1CCC[C@H]1c1ncc(C#Cc2ccc(C#Cc3cnc([C@@H]4CCCN4C(=O)[C@@H](c4ccccc4)N4CCCCC4)[nH]3)cc2)[nH]1)c1ccccc1 [Compound 312] | < 1
COC(=O)N[C@@H](C(=O)N1CCC[C@H]1c1ncc(C#Cc2ccc(C#Cc3cnc([C@@H]4CCCN4C(=O)[C@@H](c4ccccc4)N4CCOCC4)[nH]3)cc2)[nH]1)c1ccccc1 [Compound 313] | < 1
COC(=O)N[C@@H](C(=O)N1CCC[C@H]1c1ncc(C#Cc2ccc(C#Cc3cnc([C@@H]4CCCN4C(=O)[C@@H](c4ccccc4)N(C)C)[nH]3)cc2)[nH]1)c1ccccc1 [Compound 314] | < 1
CCN(CC)[C@@H](C(=O)N1CCC[C@H]1c1ncc(C#Cc2ccc(C#Cc3cnc([C@@H]4CCCN4C(=O)[C@H](NC(=O)OC)c4ccccc4)[nH]3)cc2)[nH]1)c1ccccc1 [Compound 315] | < 1
COC(=O)N[C@@H](C(=O)N1CCC[C@H]1c1ncc(C#Cc2ccc3nc([C@@H]4CCCN4C(=O)[C@H](NC(=O)OC)c4ccccc4)[nH]c3c2)[nH]1)c1ccccc1 [Compound 700] | < 1
COC(=O)N[C@@H](C(=O)N1CCC[C@H]1c1ncc(C#Cc2ccc(-c3ccc(-c4cnc([C@@H]5CCCN5C(=O)[C@H](NC(=O)OC)c5ccccc5)[nH]4)cc3)cc2)[nH]1)c1ccccc1 [Compound 750] | < 1
CCN(CC)[C@@H](C(=O)N1CCC[C@H]1c1ncc(-c2ccc(-c3ccc(C#Cc4cnc([C@@H]5CCCN5C(=O)[C@H](NC(=O)OC)c5ccccc5)[nH]4)cc3)cc2)[nH]1)c1ccccc1 [Compound 751] | < 1
COC(=O)N[C@@H](C(=O)N1CCC[C@H]1c1ncc(C#Cc2ccc(-c3ccc(-c4cnc([C@@H]5CCCN5C(=O)[C@@H](c5ccccc5)N5CCCCC5)[nH]4)cc3)cc2)[nH]1)c1ccccc1 [Compound 752] | < 1
COC(=O)N[C@@H](C(=O)N1CCC[C@H]1c1ncc(C#Cc2ccc(-c3ccc(-c4cnc([C@@H]5CCCN5C(=O)[C@H](NC(=O)OC(C)(C)C)c5ccccc5)[nH]4)cc3)cc2)[nH]1)c1ccccc1 [Compound 753] | < 1
COC(=O)N[C@@H](C(=O)N1CCC[C@H]1c1ncc(C#Cc2ccc(-c3ccc(-c4cnc([C@@H]5CCCN5C(=O)[C@H](NC(=O)C5CC5)c5ccccc5)[nH]4)cc3)cc2)[nH]1)c1ccccc1 [Compound 754] | < 1
COC(=O)N[C@@H](C(=O)N1CCC[C@H]1c1ncc(C#Cc2ccc(-c3ccc(-c4cnc([C@@H]5CCCN5C(=O)[C@@H](c5ccccc5)N(C)C)[nH]4)cc3)cc2)[nH]1)c1ccccc1 [Compound 755] | < 1
COC(=O)N[C@H](C(=O)N1CCC[C@H]1c1ncc(C#Cc2ccc(-c3ccc(-c4cnc([C@@H]5CCCN5C(=O)[C@@H](NC(=O)OC)C(C)C)[nH]4)cc3)cc2)[nH]1)C(C)C [Compound 756] | < 1
CC(C)(C)OC(=O)N[C@@H](C(=O)N1CCC[C@H]1c1ncc(C#Cc2ccc(-c3ccc(-c4cnc([C@@H]5CCCN5C(=O)[C@H](NC(=O)OC(C)(C)C)c5ccccc5)[nH]4)cc3)cc2)[nH]1)c1ccccc1 [Compound 757] | < 1
COC(=O)N[C@@H](C(=O)N1CCC[C@H]1c1ncc(C#Cc2ccc(-c3ccc(-c4cnc([C@@H]5CCCN5C(=O)[C@@H](c5ccccc5)N5CCOCC5)[nH]4)cc3)cc2)[nH]1)c1ccccc1 [Compound 758] | < 1
COC(=O)N[C@@H](C(=O)N1CCC[C@H]1c1ncc(C#Cc2ccc(-c3ccc(-c4cnc([C@@H]5CCCN5C(=O)[C@@H](c5ccccc5)N5CCCC5)[nH]4)cc3)cc2)[nH]1)c1ccccc1 [Compound 759] | < 1
O=C(N[C@@H](C(=O)N1CCC[C@H]1c1ncc(C#Cc2ccc(-c3ccc(-c4cnc([C@@H]5CCCN5C(=O)[C@H](NC(=O)C5CC5)c5ccccc5)[nH]4)cc3)cc2)[nH]1)c1ccccc1)C1CC1 [Compound 760] | < 1
O=C(N[C@@H](C(=O)N1CCC[C@H]1c1ncc(C#Cc2ccc(-c3ccc(-c4cnc([C@@H]5CCCN5C(=O)[C@H](NC(=O)N5CCOCC5)c5ccccc5)[nH]4)cc3)cc2)[nH]1)c1ccccc1)N1CCOCC1 [Compound 761] | < 1
O=C(N[C@@H](C(=O)N1CCC[C@H]1c1ncc(C#Cc2ccc(-c3ccc(-c4cnc([C@@H]5CCCN5C(=O)[C@H](NC(=O)N5CC[C@H](O)C5)c5ccccc5)[nH]4)cc3)cc2)[nH]1)c1ccccc1)N1CC[C@H](O)C1 [Compound 762] | < 1
O=C(N[C@@H](C(=O)N1CCC[C@H]1c1ncc(C#Cc2ccc(-c3ccc(-c4cnc([C@@H]5CCCN5C(=O)[C@H](NC(=O)N5CC[C@@H](O)C5)c5ccccc5)[nH]4)cc3)cc2)[nH]1)c1ccccc1)N1CC[C@@H](O)C1 [Compound 763] | < 1
COC(=O)N[C@@H](C(=O)N1CCC[C@H]1c1ncc(-c2ccc(C#Cc3ccc4nc([C@@H]5CCCN5C(=O)[C@H](NC(=O)OC)c5ccccc5)[nH]c4c3)cc2)[nH]1)c1ccccc1 [Compound 800] | < 1
CC(C)(C)OC(=O)N[C@@H](C(=O)N1CCC[C@H]1c1ncc(-c2ccc(C#Cc3ccc4nc([C@@H]5CCCN5C(=O)[C@H](NC(=O)OC(C)(C)C)c5ccccc5)[nH]c4c3)cc2)[nH]1)c1ccccc1 [Compound 801] | < 1
COC(=O)N[C@H](C(=O)N1CCC[C@H]1c1ncc(-c2ccc(C#Cc3ccc4nc([C@@H]5CCCN5C(=O)[C@@H](NC(=O)OC)C(C)C)[nH]c4c3)cc2)[nH]1)C(C)C [Compound 802] | < 1
O=C(N[C@@H](C(=O)N1CCC[C@H]1c1nc(-c2ccc3cc(C#Cc4cnc([C@@H]5CCCN5C(=O)[C@H](NC(=O)C5CC5)c5ccccc5)[nH]4)ccc3c2)c[nH]1)c1ccccc1)C1CC1 [Compound 804] | < 1
CC1(O)CCC(C(=O)N[C@@H](C(=O)N2CCC[C@H]2c2nc(-c3ccc4cc(C#Cc5cnc([C@@H]6CCCN6C(=O)[C@H](NC(=O)N6CCC(C)(O)CC6)c6ccccc6)[nH]5)ccc4c3)c[nH]2)c2ccccc2)CC1 (stereo partly drawn) [Compound 805] | < 1
O=C(N[C@@H](C(=O)N1CCC[C@H]1c1nc(-c2ccc3cc(C#Cc4cnc([C@@H]5CCCN5C(=O)[C@H](NC(=O)N5CC[C@H](O)C5)c5ccccc5)[nH]4)ccc3c2)c[nH]1)c1ccccc1)N1CC[C@H](O)C1 [Compound 806] | 1 to 9.9
O=C(N[C@@H](C(=O)N1CCC[C@H]1c1nc(-c2ccc3cc(C#Cc4cnc([C@@H]5CCCN5C(=O)[C@H](NC(=O)N5CC[C@@H](O)C5)c5ccccc5)[nH]4)ccc3c2)c[nH]1)c1ccccc1)N1CC[C@@H](O)C1 [Compound 807] | 1 to 9.9
O=C(N[C@@H](C(=O)N1CCC[C@H]1c1nc(-c2ccc3cc(C#Cc4cnc([C@@H]5CCCN5C(=O)[C@H](NC(=O)N5CCOCC5)c5ccccc5)[nH]4)ccc3c2)c[nH]1)c1ccccc1)N1CCOCC1 [Compound 808] | < 1
